{
  "source": "patent US6355799B1",
  "about": "“Substituted benzene compounds, process for their preparation, and herbicidal and defoliant compositions containing them” (ISK Americas Incorporated, priority 1997, dated 2002)",
  "format_in_all_cases": "in vivo",
  "key": {"[1]": {"test_system": "redroot pigweed (Amaranthus retroflexus, AMARE)", "experiment": "Pre-emerge test, greenhouse herbicide activity screening", "details": "rating scale 0-100, 14 days after application", "summary_of_the_method": "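Sandy loam pots; pre-emerge: sown 1 d pre-spray, surface-watered after, then bottom-watered. Post-emerge: sown 8–21 d before, 2–3 leaf stage, + 0.25% v/v NIS, bottom-watered. Acetone, 187 l/ha track spray, 15–1000 g ai/ha. 0–100 injury score, day 14.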"}, "[2]": {"test_system": "barnyardgrass (Echinochloa crus-galli, ECHCG)", "experiment": "Post-emerge test, greenhouse herbicide activity screening", "details": "rating scale 0-100 (0 no damage, 100 complete death), 14 days after application", "summary_of_the_method": "(§1)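 Compounds in acetone were track-sprayed at 15–1000 g ai/ha: pre-emergence onto soil sown the previous day, then top-watered to incorporate and later bottom-watered; post-emergence onto 2–3 leaf plants with 0.25% v/v surfactant, bottom-watered only. Ratings on a 0–100 phytotoxicity scale were taken at day 14.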"}, "[3]": {"test_system": "sicklepod (Cassia obtusifolia, CASOB)", "experiment": "Post-emerge test, greenhouse herbicide activity screening", "details": "rating scale 0-100 (0 no damage, 100 complete death), 14 days after application", "summary_of_the_method": "as §1"}, "[4]": {"test_system": "redroot pigweed (Amaranthus retroflexus, AMARE)", "experiment": "Post-emerge test, greenhouse herbicide activity screening", "details": "rating scale 0-100 (0 no damage, 100 complete death), 14 days after application", "summary_of_the_method": "as §1"}, "[5]": {"test_system": "velvetleaf (Abutilon theophrasti, ABUTH)", "experiment": "Post-emerge test, greenhouse herbicide activity screening", "details": "rating scale 0-100 (0 no damage, 100 complete death), 14 days after application", "summary_of_the_method": "as §1"}, "[6]": {"test_system": "large crabgrass (Digitaria sanguinalis, DIGSA)", "experiment": "Post-emerge test, greenhouse herbicide activity screening", "details": "rating scale 0-100 (0 no damage, 100 complete death), 14 days after application", "summary_of_the_method": "as §1"}, "[7]": {"test_system": "green foxtail (Setaria viridis, SETVI)", "experiment": "Post-emerge test, greenhouse herbicide activity screening", "details": "rating scale 0-100 (0 no damage, 100 complete death), 14 days after application", "summary_of_the_method": "as §1"}, "[8]": {"test_system": "ivyleaf morningglory (Ipomoea hederacea, IPOHE)", "experiment": "Post-emerge test, greenhouse herbicide activity screening", "details": "rating scale 0-100 (0 no damage, 100 complete death), 14 days after application", "summary_of_the_method": "as §1"}, "[9]": {"test_system": "johnsongrass (Sorghum halepense, SORHA)", "experiment": "Post-emerge test, greenhouse herbicide activity screening", "details": "rating scale 0-100 (0 no damage, 100 complete death), 14 days after application", "summary_of_the_method": "as §1"}, "[10]": {"test_system": "common ragweed (Ambrosia artemisizfolia L., AMBEL)", "experiment": "Post-emerge test, greenhouse herbicide activity screening", "details": "rating scale 0-100 (0 no damage, 100 complete death), 14 days after application", "summary_of_the_method": "as §1"}, "[11]": {"test_system": "lambsquarters (Chenopodium album, CHEAL)", "experiment": "Post-emerge test, greenhouse herbicide activity screening", "details": "rating scale 0-100 (0 no damage, 100 complete death), 14 days after application", "summary_of_the_method": "as §1"}, "[12]": {"test_system": "field corn (Zea mays L., var. Dekalb 535, CORN)", "experiment": "Pre-emerge test, crop safety", "details": "rating scale 0-100, 14 days after application", "summary_of_the_method": "(§2)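 Plants grown in 10 cm pots of sandy loam mix received acetone-dissolved compounds through a moving flat-fan nozzle. Doses ranged from 15 to 1000 g ai/ha. Pre-emerge pots were seeded one day earlier, post-emerge pots 8–21 days earlier. Fourteen days on, each pot was graded 0–100 for damage.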"}, "[13]": {"test_system": "upland rice (Oryza sp., var. Tebonnet, RICE)", "experiment": "Pre-emerge test, crop safety", "details": "rating scale 0-100, 14 days after application", "summary_of_the_method": "as §2"}, "[14]": {"test_system": "barnyardgrass (Echinochloa crus-galli, ECHCG)", "experiment": "Pre-emerge test, greenhouse herbicide activity screening", "details": "rating scale 0-100, 14 days after application", "summary_of_the_method": "as §2"}, "[15]": {"test_system": "sicklepod (Cassia obtusifolia, CASOB)", "experiment": "Pre-emerge test, greenhouse herbicide activity screening", "details": "rating scale 0-100, 14 days after application", "summary_of_the_method": "as §2"}, "[16]": {"test_system": "velvetleaf (Abutilon theophrasti, ABUTH)", "experiment": "Pre-emerge test, greenhouse herbicide activity screening", "details": "rating scale 0-100, 14 days after application", "summary_of_the_method": "as §2"}, "[17]": {"test_system": "large crabgrass (Digitaria sanguinalis, DIGSA)", "experiment": "Pre-emerge test, greenhouse herbicide activity screening", "details": "rating scale 0-100, 14 days after application", "summary_of_the_method": "as §2"}, "[18]": {"test_system": "green foxtail (Setaria viridis, SETVI)", "experiment": "Pre-emerge test, greenhouse herbicide activity screening", "details": "rating scale 0-100, 14 days after application", "summary_of_the_method": "as §2"}, "[19]": {"test_system": "ivyleaf morningglory (Ipomoea hederacea, IPOHE)", "experiment": "Pre-emerge test, greenhouse herbicide activity screening", "details": "rating scale 0-100, 14 days after application", "summary_of_the_method": "as §2"}, "[20]": {"test_system": "johnsongrass (Sorghum halepense, SORHA)", "experiment": "Pre-emerge test, greenhouse herbicide activity screening", "details": "rating scale 0-100, 14 days after application", "summary_of_the_method": "as §2"}, "[21]": {"test_system": "common ragweed (Ambrosia artemisizfolia L., AMBEL)", "experiment": "Pre-emerge test, greenhouse herbicide activity screening", "details": "rating scale 0-100, 14 days after application", "summary_of_the_method": "as §2"}, "[22]": {"test_system": "lambsquarters (Chenopodium album, CHEAL)", "experiment": "Pre-emerge test, greenhouse herbicide activity screening", "details": "rating scale 0-100, 14 days after application", "summary_of_the_method": "as §2"}, "[23]": {"test_system": "field corn (Zea mays L., var. Dekalb 535, CORN)", "experiment": "Post-emerge test, crop safety", "details": "rating scale 0-100 (0 no damage, 100 complete death), 14 days after application", "summary_of_the_method": "(§3)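 Each test used a mechanized track sprayer delivering 187 l/ha of acetone solution at 15–1000 g ai/ha. Post-emerge foliage at 2–3 leaves was treated with added 0.25% v/v non-ionic surfactant and bottom-watered only. Injury was assessed on day 14, where 100 means total kill.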"}, "[24]": {"test_system": "upland rice (Oryza sp., var. Tebonnet, RICE)", "experiment": "Post-emerge test, crop safety", "details": "rating scale 0-100 (0 no damage, 100 complete death), 14 days after application", "summary_of_the_method": "as §3"}},
  "data": [
    {"molecule": "COc1c(Cl)cc(F)c(-n2c(=O)cc(C(F)(F)F)n(C)c2=O)c1CC(Cl)C(=O)OC(C)(C)C", "note": "(stereo not drawn) [14-18]", "values": [
      {"measurement": "Pre-emerge herbicidal activity, phytotoxicity rating AMARE", "setting": "[1]; 63 g ai/ha", "value": 100},
      {"measurement": "Pre-emerge herbicidal activity, phytotoxicity rating AMARE", "setting": "[1]; 250 g ai/ha", "value": 100},
      {"measurement": "Post-emerge Herbicidal Activity, phytotoxicity rating ECHCG", "setting": "[2]; Rate 63 g ai/ha", "value": 99},
      {"measurement": "Post-emerge Herbicidal Activity, phytotoxicity rating ECHCG", "setting": "[2]; Rate 250 g ai/ha", "value": 100},
      {"measurement": "Post-emerge Herbicidal Activity, phytotoxicity rating CASOB", "setting": "[3]; Rate 63 g ai/ha", "value": 20},
      {"measurement": "Post-emerge Herbicidal Activity, phytotoxicity rating CASOB", "setting": "[3]; Rate 250 g ai/ha", "value": 60},
      {"measurement": "Post-emerge Herbicidal Activity, phytotoxicity rating AMARE", "setting": "[4]; Rate 63 g ai/ha", "value": 100},
      {"measurement": "Post-emerge Herbicidal Activity, phytotoxicity rating AMARE", "setting": "[4]; Rate 250 g ai/ha", "value": 100},
      {"measurement": "Post-emerge Herbicidal Activity, phytotoxicity rating ABUTH", "setting": "[5]; Rate 63 g ai/ha", "value": 30},
      {"measurement": "Post-emerge Herbicidal Activity, phytotoxicity rating ABUTH", "setting": "[5]; Rate 250 g ai/ha", "value": 60},
      {"measurement": "Post-emerge Herbicidal Activity, phytotoxicity rating DIGSA", "setting": "[6]; Rate 63 g ai/ha", "value": 20},
      {"measurement": "Post-emerge Herbicidal Activity, phytotoxicity rating DIGSA", "setting": "[6]; Rate 250 g ai/ha", "value": 60},
      {"measurement": "Post-emerge Herbicidal Activity, phytotoxicity rating SETVI", "setting": "[7]; Rate 63 g ai/ha", "value": 10},
      {"measurement": "Post-emerge Herbicidal Activity, phytotoxicity rating SETVI", "setting": "[7]; Rate 250 g ai/ha", "value": 20},
      {"measurement": "Post-emerge Herbicidal Activity, phytotoxicity rating IPOHE", "setting": "[8]; Rate 63 g ai/ha", "value": 30},
      {"measurement": "Post-emerge Herbicidal Activity, phytotoxicity rating IPOHE", "setting": "[8]; Rate 250 g ai/ha", "value": 60},
      {"measurement": "Post-emerge Herbicidal Activity, phytotoxicity rating SORHA", "setting": "[9]; Rate 63 g ai/ha", "value": 10},
      {"measurement": "Post-emerge Herbicidal Activity, phytotoxicity rating SORHA", "setting": "[9]; Rate 250 g ai/ha", "value": 30},
      {"measurement": "Post-emerge Herbicidal Activity, phytotoxicity rating AMBEL", "setting": "[10]; Rate 63 g ai/ha", "value": 0},
      {"measurement": "Post-emerge Herbicidal Activity, phytotoxicity rating AMBEL", "setting": "[10]; Rate 250 g ai/ha", "value": 10},
      {"measurement": "Post-emerge Herbicidal Activity, phytotoxicity rating CHEAL", "setting": "[11]; Rate 63 g ai/ha", "value": 99},
      {"measurement": "Post-emerge Herbicidal Activity, phytotoxicity rating CHEAL", "setting": "[11]; Rate 250 g ai/ha", "value": 100},
      {"measurement": "Pre-emerge phytotoxicity rating, crop damage CORN", "setting": "[12]; 63 g ai/ha", "value": 0},
      {"measurement": "Pre-emerge phytotoxicity rating, crop damage CORN", "setting": "[12]; 250 g ai/ha", "value": 0},
      {"measurement": "Pre-emerge phytotoxicity rating, crop damage RICE", "setting": "[13]; 63 g ai/ha", "value": 0},
      {"measurement": "Pre-emerge phytotoxicity rating, crop damage RICE", "setting": "[13]; 250 g ai/ha", "value": 10},
      {"measurement": "Pre-emerge herbicidal activity, phytotoxicity rating ECHCG", "setting": "[14]; 63 g ai/ha", "value": 0},
      {"measurement": "Pre-emerge herbicidal activity, phytotoxicity rating ECHCG", "setting": "[14]; 250 g ai/ha", "value": 20},
      {"measurement": "Pre-emerge herbicidal activity, phytotoxicity rating CASOB", "setting": "[15]; 63 g ai/ha", "value": 0},
      {"measurement": "Pre-emerge herbicidal activity, phytotoxicity rating CASOB", "setting": "[15]; 250 g ai/ha", "value": 20},
      {"measurement": "Pre-emerge herbicidal activity, phytotoxicity rating ABUTH", "setting": "[16]; 63 g ai/ha", "value": 40},
      {"measurement": "Pre-emerge herbicidal activity, phytotoxicity rating ABUTH", "setting": "[16]; 250 g ai/ha", "value": 70},
      {"measurement": "Pre-emerge herbicidal activity, phytotoxicity rating DIGSA", "setting": "[17]; 63 g ai/ha", "value": 0},
      {"measurement": "Pre-emerge herbicidal activity, phytotoxicity rating DIGSA", "setting": "[17]; 250 g ai/ha", "value": 90},
      {"measurement": "Pre-emerge herbicidal activity, phytotoxicity rating SETVI", "setting": "[18]; 63 g ai/ha", "value": 0},
      {"measurement": "Pre-emerge herbicidal activity, phytotoxicity rating SETVI", "setting": "[18]; 250 g ai/ha", "value": 20},
      {"measurement": "Pre-emerge herbicidal activity, phytotoxicity rating IPOHE", "setting": "[19]; 63 g ai/ha", "value": 0},
      {"measurement": "Pre-emerge herbicidal activity, phytotoxicity rating IPOHE", "setting": "[19]; 250 g ai/ha", "value": 20},
      {"measurement": "Pre-emerge herbicidal activity, phytotoxicity rating SORHA", "setting": "[20]; 63 g ai/ha", "value": 0},
      {"measurement": "Pre-emerge herbicidal activity, phytotoxicity rating SORHA", "setting": "[20]; 250 g ai/ha", "value": 10},
      {"measurement": "Pre-emerge herbicidal activity, phytotoxicity rating AMBEL", "setting": "[21]; 63 g ai/ha", "value": 0},
      {"measurement": "Pre-emerge herbicidal activity, phytotoxicity rating AMBEL", "setting": "[21]; 250 g ai/ha", "value": 70},
      {"measurement": "Pre-emerge herbicidal activity, phytotoxicity rating CHEAL", "setting": "[22]; 63 g ai/ha", "value": 100},
      {"measurement": "Pre-emerge herbicidal activity, phytotoxicity rating CHEAL", "setting": "[22]; 250 g ai/ha", "value": 100},
      {"measurement": "Post-emerge phytotoxicity rating CORN (crop damage)", "setting": "[23]; Rate 63 g ai/ha", "value": 20},
      {"measurement": "Post-emerge phytotoxicity rating CORN (crop damage)", "setting": "[23]; Rate 250 g ai/ha", "value": 50},
      {"measurement": "Post-emerge phytotoxicity rating RICE (crop damage)", "setting": "[24]; Rate 63 g ai/ha", "value": 10},
      {"measurement": "Post-emerge phytotoxicity rating RICE (crop damage)", "setting": "[24]; Rate 250 g ai/ha", "value": 25}
    ]}
  ]
}
